Ends that are not written are not given here.
Key:
aquaporin 3 = assay: Expression of aquaporin 3 by immunofluorescence in samples of skin ex vivo; format: cell-based, human; settings: 1% solution of a mother solution at 50 ppm applied topically, 24 hours or 48 hours (0.05 ppm); upper layers of the epidermis; vs non-treated control
Description: The aim of this study is to determine the influence of the peptide SEQ ID no5 on the expression of aquaporin 3 in samples of skin ex vivo.
Protocol: Samples of human skin are cultured at the air/liquid interface. A 1% solution of a mother solution at 50 ppm of peptide SEQ ID no4 is applied topically, then the samples are incubated for 24 hours or 48 hours.
These skin samples are then fixed with formaldehyde then enclosed in paraffin. Sections of 2 to 3 μm are then realized. The immunolabeling is carried out after different stages of washing and incubation of these sections. The immunolabeling is carried out by means of a specific polyclonal antibody of aquaporin 3 (anti-aquaporin 3 (C-18): goat polyclonal, sc-9885, Santa Cruz, dilution 1/100th), then a secondary antibody, coupled to a fluorescent marker (alexa-fluor 488 donkey anti-goat Ig G, Molecular Probes, dilution 1/1000th). The skin sections are then examined by epifluorescence microscope (Nikon Eclipse E600 microscope).

[1] = test system: normal human keratinocytes; assay: Protective effect against osmotic shock caused by sorbitol, viability test by MTT; format: cell-based; settings: sorbitol 250 mM 24 hours, vs non-treated cells
Description: The aim of this study is to determine the protective effect of the peptide SEQ ID no4 with respect to normal human keratinocytes subjected to an osmotic shock caused by sorbitol. The evaluation of the cellular state is then carried out by a viability test by MTT.
Normal human keratinocytes in culture were placed in the presence of the peptide SEQ ID no4 at 0.5%, 1% and 3% from a mother solution at 50 ppm, 24 hours before and during the osmotic shock. The hypertonic culture conditions were realized by adding sorbitol at 250 mM to the culture medium for 24 hours. Non-treated controls are carried out.
Cellular viability tests were then carried out by the MTT technique. The MTT agent (3-[4,5-dimethylthiazol-2-yl]-2,5-diphenyltetrazolium bromide) is used to evaluate the cellular viability. The keratinocytes are incubated in a solution containing 0.1 mg/ml MTT (3-[4,5-dimethylthiazol-2-yl]-2,5-diphenyltetrazolium bromide). This compound is absorbed by the living cells, then metabolized by the mitochondrial enzymes (succinate dehydrogenase) in a blue-violet compound, formazan, which is present in the form of insoluble violet crystals in aqueous medium.
The formazan crystals are solubilized in DMSO. They produce an absorbance (O.D.) proportional to the number of living cells present in the sample. Measurements of absorbance at 540 nm are then carried out. […]

[2] = test system: Biopsies of human skin relieved of their stratum corneum; assay: Protective effect against induced cutaneous dehydration (tape stripping), ex vivo skin biopsies, H&E histology; format: cell-based; settings: 1% solution of a mother solution at 50 ppm, 24 hours, stripped ex vivo human skin
Description: The aim of this study is to determine the protective effect of the peptide SEQ ID no5 with respect to ex vivo epidermis cultures subjected to a stress by an induced cutaneous dehydration.
Biopsies of human skin are relieved of their stratum corneum by stripping by means of an adhesive tape (tape stripping) then held in culture ex vivo, treated with a 1% solution of a mother solution at 50 ppm of peptide SEQ ID no5 for 24 hours. The absence of the stratum corneum induces a high dehydration. Hematoxylin-eosin (H&E) histological sections and stains allow the quality of the cutaneous structures to be evaluated.

keratin K10 = assay: Expression of keratin K10 by immunofluorescence on sections of human skin; format: cell-based; settings: 1% solution of a mother solution at 50 ppm applied topically, 24 hours (0.05 ppm); in particular the upper layers of the epidermis
Text: (§1) The aim of this study is to determine the influence of the peptide SEQ ID no 5 on the expression of claudins and of keratin K10. Claudins are the principal transmembrane proteins of the intercellular adhesion structures known as tight-junction, which play a part in the cellular communication and in epidermal cohesion. Keratin K10 is a specific keratin of the differentiated epidermal layers (stratum granulosum) and is involved in the barrier function of the skin. The quantity of protein was evaluated by immunofluorescence on sections of human skin.
(§2) Protocol: Samples of human skin are cultured at the air/liquid interface. A 1% solution of a mother solution at 50 ppm of peptide SEQ ID no5 is applied topically, then the samples are incubated for 24 hours.
(§3) These skin samples are then fixed with formaldehyde, then enclosed in paraffin. Sections of 2 to 3 μm are then realized. The immunolabeling is carried out after different stages of washing and of incubation of these sections.
The immunolabeling of keratin 10 is carried out by means of a specific antibody of keratin 10 (antibody K10: mouse monoclonal, ref: LHP1, Novocastra, dilution 1/50th), then a secondary antibody, coupled to a fluorescent marker (alexa Fluor 488 donkey anti-mouse IgG, A21202, Molecular Probes, 1/1000th).
(§4) The skin sections are then examined by epifluorescence microscope (Nikon Eclipse E600 microscope).

claudin-1 = assay: Expression of claudin-1 by immunofluorescence on sections of human skin; format: cell-based; settings: 1% solution of a mother solution at 50 ppm applied topically, 24 hours (0.05 ppm); in particular the upper layers of the epidermis
Text: as §1, §2, §3
The immunolabeling of claudin-1 is carried out by means of a specific antibody of claudin-1 (claudin-1 antibody: rabbit polyclonal, ref: Ab15098, Abcam, dilution 1/200th), then a secondary antibody, coupled with a fluorescent marker (alexa Fluor 488 donkey anti-rabbit IgG, A21206, Molecular Probes, 1/1000th).
as §4

## Asn-Pro-Ala-Arg (NPAR) [SEQ ID no4]
Aquaporin 3
  aquaporin 3 immunofluorescence: stronger fluorescence
[1]; peptide at 0.5%, 1% and 3% of a mother solution at 50 ppm
  viability of cells subjected to the osmotic shock (dose dependence): increase in the viability, dependent on dose
[1]; peptide at 3% of a mother solution at 50 ppm, 24 hours before and during shock
  increase of viability of cells subjected to the osmotic shock: 12%

## Asn-Pro-Ala-Arg-NH2 (NPAR-NH2) [SEQ ID no5]
[2]
  appearance of the keratinocytes of the basal layer (regeneration): regenerating effect
[2]; vs non-treated biopsies
  signs of cellular stress and preservation of cutaneous structures (H&E sections): distinct reduction to the signs of cellular stress and a better preservation of the cutaneous structures
Keratin K10
  keratin K10 immunofluorescence: stronger fluorescence
claudin-1
  claudin-1 immunofluorescence: stronger fluorescence
